# Data from PubChem BioAssay (NCI).
#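 Abbreviation: GI50, concentration required for 50% inhibition of growth. TGI is the concentration that stops growth completely.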
# Assays:
# Assay in all cases: NCI anticancer screen, dose series, 384-well format
# [1] = system: NCI-H522 lung
# [2] = system: UACC-62 melanoma
# [3] = system: A498 renal
# [4] = system: BT-549 breast
# [5] = system: RXF 393 renal
# [6] = system: SR leukemia
# [7] = system: NCI-H460 NSCLC
# [8] = system: U251 glioblastoma
# [9] = system: NCI-H226 lung
# [10] = system: MDA-MB-231 breast
# [11] = system: SW-620 colon
# [12] = system: MCF7 breast
# [13] = system: SK-MEL-5 melanoma
# [14] = system: TK-10 renal
# [15] = system: T-47D breast
# [16] = system: HS 578T breast
# [17] = system: HOP-92 NSCLC
# [18] = system: HL-60(TB) leukemia
# [19] = system: KM12 colon
# [20] = system: MALME-3M melanoma
# [21] = system: DU-145 prostate
# [22] = system: CCRF-CEM leukemia
# [23] = system: NCI-H23 lung
# [24] = system: A549 NSCLC
# [25] = system: ACHN renal
# [26] = system: HCT-15 colon
# [27] = system: SNB-19 CNS
# [28] = system: IGROV1 ovarian
# [29] = system: SF-268 CNS
# [30] = system: SK-OV-3 ovarian
# [31] = system: M14 melanoma
# [32] = system: 786-0 renal
# [33] = system: SF-295 CNS
# [34] = system: PC-3 prostate
# [35] = system: OVCAR-4 ovarian
# [36] = system: EKVX NSCLC
# [37] = system: CAKI-1 renal
# [38] = system: SN12C renal
# [39] = system: NCI/ADR-RES ovarian
# [40] = system: HCC-2998 colon
# [41] = system: HOP-62 NSCLC
# [42] = system: SNB-75 CNS
# [43] = system: SK-MEL-28 melanoma
# [44] = system: K-562 leukemia
# [45] = system: COLO 205 colon
# [46] = system: MDA-MB-435 melanoma
# [47] = system: SF-539 CNS
# [48] = system: MDA-MB-468 breast
# [49] = system: NCI-H322M lung
# [50] = system: OVCAR-3 ovarian
# [51] = system: HT29 colon
# [52] = system: MOLT-4 leukemia
# [53] = system: OVCAR-8 ovarian
# [54] = system: LOX IMVI melanoma
# [55] = system: OVCAR-5 ovarian
# [56] = system: UO-31 renal
# [57] = system: UACC-257 melanoma
# [58] = system: RPMI-8226 leukemia
structure (smiles),measurement,setting,value
O=C(O)CCC1CCC(c2cc(F)ccc2F)(S(=O)(=O)c2ccc(Cl)cc2)CC1 (stereo unspecified),GI50,[1],> 100 µM
same,TGI,[1],> 100 µM
same,GI50,[2],> 100 µM
same,TGI,[2],> 100 µM
same,GI50,[3],> 100 µM
same,TGI,[3],> 100 µM
same,GI50,[4],> 100 µM
same,TGI,[4],> 100 µM
same,GI50,[5],> 100 µM
same,TGI,[5],> 100 µM
same,GI50,[6],24.8 µM
same,TGI,[6],> 100 µM
same,GI50,[7],> 100 µM
same,TGI,[7],> 100 µM
same,GI50,[8],> 100 µM
same,TGI,[8],> 100 µM
same,GI50,[9],> 100 µM
same,TGI,[9],> 100 µM
same,GI50,[10],> 100 µM
same,TGI,[10],> 100 µM
same,GI50,[11],> 100 µM
same,TGI,[11],> 100 µM
same,GI50,[12],> 100 µM
same,TGI,[12],> 100 µM
same,GI50,[13],> 100 µM
same,TGI,[13],> 100 µM
same,GI50,[14],> 100 µM
same,TGI,[14],> 100 µM
same,GI50,[15],99.6 µM
same,TGI,[15],> 100 µM
same,GI50,[16],> 100 µM
same,TGI,[16],> 100 µM
same,GI50,[17],> 100 µM
same,TGI,[17],> 100 µM
same,GI50,[18],> 100 µM
same,TGI,[18],> 100 µM
same,GI50,[19],> 100 µM
same,TGI,[19],> 100 µM
same,GI50,[20],62 µM
same,TGI,[20],> 100 µM
same,GI50,[21],> 100 µM
same,TGI,[21],> 100 µM
same,GI50,[22],75.8 µM
same,TGI,[22],> 100 µM
same,GI50,[23],> 100 µM
same,TGI,[23],> 100 µM
same,GI50,[24],> 100 µM
same,TGI,[24],> 100 µM
same,GI50,[25],> 100 µM
same,TGI,[25],> 100 µM
same,GI50,[26],> 100 µM
same,TGI,[26],> 100 µM
same,GI50,[27],> 100 µM
same,TGI,[27],> 100 µM
same,GI50,[28],> 100 µM
same,TGI,[28],> 100 µM
same,GI50,[29],> 100 µM
same,TGI,[29],> 100 µM
same,GI50,[30],> 100 µM
same,TGI,[30],> 100 µM
same,GI50,[31],> 100 µM
same,TGI,[31],> 100 µM
same,GI50,[32],> 100 µM
same,TGI,[32],> 100 µM
same,GI50,[33],> 100 µM
same,TGI,[33],> 100 µM
same,GI50,[34],> 100 µM
same,TGI,[34],> 100 µM
same,GI50,[35],78.8 µM
same,TGI,[35],> 100 µM
same,GI50,[36],> 100 µM
same,TGI,[36],> 100 µM
same,GI50,[37],> 100 µM
same,TGI,[37],> 100 µM
same,GI50,[38],> 100 µM
same,TGI,[38],> 100 µM
same,GI50,[39],> 100 µM
same,TGI,[39],> 100 µM
same,GI50,[40],> 100 µM
same,TGI,[40],> 100 µM
same,GI50,[41],> 100 µM
same,TGI,[41],> 100 µM
same,GI50,[42],> 100 µM
same,TGI,[42],> 100 µM
same,GI50,[43],> 100 µM
same,TGI,[43],> 100 µM
same,GI50,[44],> 100 µM
same,TGI,[44],> 100 µM
same,GI50,[45],> 100 µM
same,TGI,[45],> 100 µM
same,GI50,[46],71.9 µM
same,TGI,[46],> 100 µM
same,GI50,[47],> 100 µM
same,TGI,[47],> 100 µM
same,GI50,[48],8.1 µM
same,TGI,[48],80.4 µM
same,GI50,[49],> 100 µM
same,TGI,[49],> 100 µM
same,GI50,[50],> 100 µM
same,TGI,[50],> 100 µM
same,GI50,[51],> 100 µM
same,TGI,[51],> 100 µM
same,GI50,[52],65 µM
same,TGI,[52],> 100 µM
same,GI50,[53],> 100 µM
same,TGI,[53],> 100 µM
same,GI50,[54],> 100 µM
same,TGI,[54],> 100 µM
same,GI50,[55],> 100 µM
same,TGI,[55],> 100 µM
same,GI50,[56],> 100 µM
same,TGI,[56],> 100 µM
same,GI50,[57],> 100 µM
same,TGI,[57],> 100 µM
same,GI50,[58],> 100 µM
same,TGI,[58],> 100 µM
